According to patent publication US20240366540A1, “MITOFUSIN INHIBITORS AND USES THEREOF” (Albert Einstein College of Medicine, priority 2021, published 2024):

Test system: MEFs
Experiment: DNA damage, yH2AX immunofluorescence in MEFs
Type: cell-based, mouse
Details: 6 h
Experimental: Immunofluorescent analysis and microscopy. […] After treatments, cells were washed with PBS and fixed with 4% PFA for 15 min. […] After incubation with primary antibodies, cells were washed with PBS and incubated with the appropriate mouse secondary antibody (ThermoFisher Scientific; A-11001) in the blocking solution. After PBS washes, coverslips were dipped in water and mounted on glass slides using Vectashield containing DAPI (Vector laboratories). […] Data were analyzed with ImageJ.

Cc1cccc(NC(C)c2cc(Cl)ccc2O)c1C (centres unmarked) [MFI8, 4-Chloro-2-(1-((2,3-dimethylphenyl)amino)ethyl)phenol]
DNA damage (yH2AX foci) (MFN1/MFN2 DKO MEFs): not in MFN1/MFN2 DKO MEFs | DNA damage (yH2AX foci) (WT MEFs): increased yH2AX foci in WT MEFs
